Reference: ChEMBL document CHEMBL1817626, “The structure-activity relationship of urea derivatives as anti-tuberculosis agents” (Bioorg Med Chem, 2011)
Converted amounts (≈) assume the structure as drawn. The source made the active and inactive calls. No cut-off for these calls is given here.

Key:
[1] = target: T1, Epoxide hydrolase B (Mycobacterium tuberculosis) (UniProt P95276); assay: Inhibition of Mycobacterium tuberculosis recombinant EphB expressed in Escherichia coli BL21 using CMNPC as substrate at 10 nM after 30 mins by fluorescent assay relative to control
T1 sequence (whole entry): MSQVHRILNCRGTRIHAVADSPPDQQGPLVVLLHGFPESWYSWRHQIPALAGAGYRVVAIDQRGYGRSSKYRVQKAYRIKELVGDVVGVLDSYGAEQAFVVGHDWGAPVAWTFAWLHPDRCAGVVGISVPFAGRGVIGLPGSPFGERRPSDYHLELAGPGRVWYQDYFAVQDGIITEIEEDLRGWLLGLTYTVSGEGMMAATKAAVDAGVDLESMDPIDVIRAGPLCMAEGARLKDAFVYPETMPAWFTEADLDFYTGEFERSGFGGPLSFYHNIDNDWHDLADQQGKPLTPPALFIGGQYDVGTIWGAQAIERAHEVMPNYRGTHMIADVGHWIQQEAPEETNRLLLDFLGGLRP

Enterococcus faecium = assay: Antibacterial activity against Enterococcus faecium; assay type: functional
Staphylococcus aureus = assay: Antibacterial activity against Staphylococcus aureus; assay type: functional
Escherichia coli [2] = assay: Antibacterial activity against Escherichia coli […] TolC; assay type: functional
Klebsiella pneumoniae = assay: Antibacterial activity against Klebsiella pneumoniae; assay type: functional
[3] = target: T2, Bifunctional epoxide hydrolase 2 (Homo sapiens, UniProt P34913); assay: Inhibition of human recombinant soluble epoxide hydrolase using CMNPC as substrate after 10 mins by fluorescent assay
T2 sequence (P34913 whole entry): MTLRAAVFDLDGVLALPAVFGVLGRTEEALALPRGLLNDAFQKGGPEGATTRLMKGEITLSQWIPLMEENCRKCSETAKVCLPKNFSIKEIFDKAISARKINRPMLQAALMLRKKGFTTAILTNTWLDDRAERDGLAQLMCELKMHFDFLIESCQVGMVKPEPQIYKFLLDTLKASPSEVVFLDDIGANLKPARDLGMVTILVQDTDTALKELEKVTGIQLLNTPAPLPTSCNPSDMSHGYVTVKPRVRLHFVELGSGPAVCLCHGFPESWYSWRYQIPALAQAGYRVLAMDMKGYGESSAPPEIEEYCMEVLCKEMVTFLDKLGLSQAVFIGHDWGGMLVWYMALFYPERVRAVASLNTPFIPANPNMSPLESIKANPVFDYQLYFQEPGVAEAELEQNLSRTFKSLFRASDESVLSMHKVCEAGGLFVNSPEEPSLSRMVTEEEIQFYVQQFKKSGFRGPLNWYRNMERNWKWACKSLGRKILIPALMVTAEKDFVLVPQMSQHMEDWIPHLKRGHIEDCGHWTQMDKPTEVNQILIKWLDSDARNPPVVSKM

Pseudomonas aeruginosa = assay: Antibacterial activity against Pseudomonas aeruginosa; assay type: functional
Enterococcus faecalis = assay: Antibacterial activity against Enterococcus faecalis; assay type: functional
[4] = target: T3, Hydrolase, alpha/beta hydrolase fold family (Mycobacterium tuberculosis) (UniProt O69638); assay: Inhibition of Mycobacterium tuberculosis recombinant EphE expressed in Escherichia coli BL21 using CMNPC as substrate at 10 nM after 30 mins by fluorescent assay relative to control
T3 sequence (whole entry): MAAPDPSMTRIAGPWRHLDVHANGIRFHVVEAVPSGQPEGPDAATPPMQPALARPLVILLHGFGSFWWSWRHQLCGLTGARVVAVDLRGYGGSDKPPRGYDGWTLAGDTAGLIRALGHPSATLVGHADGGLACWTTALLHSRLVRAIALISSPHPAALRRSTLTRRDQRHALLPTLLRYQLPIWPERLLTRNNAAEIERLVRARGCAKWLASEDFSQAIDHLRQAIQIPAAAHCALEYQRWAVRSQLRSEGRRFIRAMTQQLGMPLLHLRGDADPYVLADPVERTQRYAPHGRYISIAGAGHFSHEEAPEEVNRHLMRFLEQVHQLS

Bacillus anthracis = assay: microbe, parasite or virus in culture
Escherichia coli [5] = assay: Antibacterial activity against Escherichia coli K12; assay type: functional; details: K-12
[6] = test system: Mycobacterium tuberculosis; assay: microbe, parasite or virus in culture; details: H37Rv, 168 h
[7] = test system: Mycolicibacterium smegmatis; assay: microbe, parasite or virus in culture; details: str. MC2 155, 168 h
Vero = assay: Cytotoxicity against african green monkey Vero cells after 72 hrs by MTT assay; assay type: cell-based; details: Chlorocebus sabaeus

Structure (SMILES) | inhibition [1] | MIC (Enterococcus faecium) | MIC (Staphylococcus aureus) | MIC (Escherichia coli [2]) | MIC (Klebsiella pneumoniae) | IC50 [3] | MIC (Pseudomonas aeruginosa) | MIC (Enterococcus faecalis) | inhibition [4] | MIC (Bacillus anthracis) | MIC (Escherichia coli [5]) | MIC [6] | MIC [7] | IC50 (Vero)
CCOCCNC(=O)NC12CC3CC(CC(C3)C1)C2 | 18.7% | > 200 µg/mL | > 200 µg/mL | > 200 µg/mL | > 200 µg/mL | 525 nM | > 200 µg/mL | > 200 µg/mL | 17.6% | > 200 µg/mL | > 200 µg/mL | 50 µg/mL (≈ 188 µM) | > 200 µg/mL | 
O=C(NCc1ccccc1)NC1C2CC3CC(C2)CC1C3 (configuration not stated) | inactive | > 200 µg/mL | > 200 µg/mL | > 200 µg/mL | > 200 µg/mL | 14.8 nM | > 200 µg/mL | > 200 µg/mL | 34.1% | > 200 µg/mL | > 200 µg/mL | 3.1 µg/mL (≈ 10.9 µM) | 100 µg/mL (≈ 352 µM) | 4.2 µg/mL (≈ 14.8 µM)
Cc1ccc(NC(=O)NCC23CC4CC(CC(C4)C2)C3)cc1Cl | 33.9% | > 200 µg/mL | > 200 µg/mL | > 200 µg/mL | > 200 µg/mL | 0.4 nM | > 200 µg/mL | > 200 µg/mL | 94.1% | > 200 µg/mL | > 200 µg/mL | 0.02 µg/mL (≈ 0.0601 µM) | 0.8 µg/mL (≈ 2.4 µM) | 4.34 µg/mL (≈ 13 µM)
CN(C(=O)N(C)C1C2CC3CC(C2)CC1C3)c1ccc(F)c(F)c1F (configuration not stated) | < 1% | > 200 µg/mL | > 200 µg/mL | 12.5 µg/mL (≈ 35.5 µM) | > 200 µg/mL | 1840 nM | > 200 µg/mL | > 200 µg/mL | 25.2% | > 200 µg/mL | > 200 µg/mL | 12 µg/mL (≈ 34.1 µM) | 200 µg/mL (≈ 568 µM) | 
CCCCCCCNC(=O)Nc1ccc(F)c(F)c1F | 87.5% | > 200 µg/mL |  | 6.25 µg/mL (≈ 21.7 µM) | > 200 µg/mL | 0.4 nM | > 200 µg/mL | > 200 µg/mL | 92.8% | > 200 µg/mL | > 200 µg/mL | 6 µg/mL (≈ 20.8 µM) | > 200 µg/mL | 130 µg/mL (≈ 450 µM)
COc1ccc(NC(=O)NC2C3CC4CC(C3)CC2C4)cc1 (configuration not stated) | 95.1% | > 200 µg/mL | > 200 µg/mL |  | > 200 µg/mL | 14.3 nM | > 200 µg/mL | > 200 µg/mL | 83.1% | > 200 µg/mL |  | 0.4 µg/mL (≈ 1.33 µM) | 100 µg/mL (≈ 333 µM) | 13.4 µg/mL (≈ 44.6 µM)
O=C(NC1CCCCC1)NC1C2CC3CC(C2)CC1C3 (configuration not stated) | 11.6% | > 200 µg/mL | > 200 µg/mL | > 200 µg/mL | > 200 µg/mL | 0.4 nM | > 200 µg/mL | > 200 µg/mL | 70.2% | > 200 µg/mL | > 200 µg/mL | 10 µg/mL (≈ 36.2 µM) | > 200 µg/mL | 25 µg/mL (≈ 90.4 µM)
NNC(=O)c1ccncc1 [ISONIAZID] |  |  |  |  |  |  |  |  |  |  |  | 0.01 µg/mL (≈ 0.0729 µM) |  | 
N#Cc1ccc(NC(=O)NC2C3CC4CC(C3)CC2C4)cc1 (configuration not stated) | 9% | > 200 µg/mL | > 200 µg/mL |  | > 200 µg/mL | 1.1 nM | > 200 µg/mL | > 200 µg/mL | 72.7% | 12.5 µg/mL (≈ 42.3 µM) |  | 0.4 µg/mL (≈ 1.35 µM) | 12.5 µg/mL (≈ 42.3 µM) | 7.1 µg/mL (≈ 24 µM)
O=C(Nc1ccc(F)c(F)c1F)NC1CCCC1 | 86.4% | > 200 µg/mL | > 200 µg/mL | > 200 µg/mL | > 200 µg/mL | 56.2 nM | > 200 µg/mL | > 200 µg/mL | 36% | > 200 µg/mL | > 200 µg/mL | 50 µg/mL (≈ 194 µM) | 200 µg/mL (≈ 774 µM) | 
O=C(Nc1ccc(F)c(F)c1F)NC1CCCCC1 | 96.4% | > 200 µg/mL | > 200 µg/mL | > 200 µg/mL | > 200 µg/mL | 1.2 nM | > 200 µg/mL | > 200 µg/mL | 65.6% | > 200 µg/mL | > 200 µg/mL |  | 12.5 µg/mL (≈ 45.9 µM) | 15.9 µg/mL (≈ 58.4 µM)
